{
  "source": "patent US20240060990A1",
  "about": "“SPATIAL SIGNALING NETWORKS FOR MULTIPLEXED DRUG RESPONSE MEASUREMENT AND MODELING” (Georgia Tech Research Corporation, priority 2022, published 2024)",
  "key": {"c-MYC": {"test_system": "c-MYC", "conditions": "EGFRm-sensitive cells; cited from earlier work"}, "p-EGFR (Tyr1086)": {"test_system": "p-EGFR (Tyr1086)", "assay": "RapMIF multiplexed immunofluorescence in PC9 cells, p-EGFR", "type": "cell-based, human", "conditions": "40 nM", "procedure": "(§1) Following that, the cells were then fixed and permeabilized with 1.6% formaldehyde in 1×PBS for 10 minutes at RT and 0.5% Triton X-100 for 10 minutes at RT, respectively (FIG. 10A). The cells were then blocked using a cell staining medium (CSM) containing 5d. […] PC9 cells were stained with p-EGFR and β-tubulin overnight followed by 1-hour incubation of secondary antibodies at RT, and 15 mins DAPI staining. The cells were then imaged at 40× magnification, and the cell number was analyzed using ImageJ. […] The coverslip was mounted to an acrylic holder for multiple cycles of staining."}, "p-EGFR (Y1173)": {"test_system": "p-EGFR (Y1173)", "conditions": "PC9 cells; cited from earlier work"}, "PC9 cells": {"test_system": "PC9 cells", "assay": "Pearson correlation of single-cell mean marker intensity (RapMIF)", "type": "cell-based, human", "procedure": "Correlation analysis: Correlation between pairs of cells was performed based on the mean intensity level for a pair of markers across all the cells (FIGS. 5A-5F). The correlation between pairwise markers at the cell level was investigated to identify co-expression patterns. For the correlation analysis, the Pearson correlation of pairwise markers at the single-cell level was quantified by using the mean intensity distribution for pairs of markers across the cells (FIGS. 5E-5F, FIGS. 7C-7D). The per cell mean intensity was first extracted for all markers to obtain a vector of mean intensities per cell. The nuclei and cytosol region were then separated for each cell and extracted one vector of mean intensities in the cytosol and another vector of mean intensities in the nuclei per cell. To confirm the bleaching efficiency, the mean intensity correlations of the before and after bleach images was compared. The 3-way correlation was calculated with the adjusted-R^2 value of the linear regression model of one marker predicted by the two others. Specifically, the expression of the maker on the z-axis was predicted by the two markers on the x and y-axis using a 3D scatter plot."}, "NF-κB/p-p90RSK": {"test_system": "NF-κB/p-p90RSK", "assay": "RapMPI (multiplexed PLA) PPI counts in HCC827 cells, 9 PPI panel", "type": "cell-based, human", "conditions": "12 hours, 9 PPI dataset", "procedure": "as §1, with “respectively.” for “respectively (FIG. 10A).”, “0.5% BSA, and 0.02% Sodium Azide in PBS.” for “5d.”, “HCC827” for “PC9”, “p-ERK” for “p-EGFR and β-tubulin”, “10” for “15”, “intensity levels were analyzed.” for “cell number was analyzed using ImageJ.”\n(§2) RapMPI on cell cultures: For single color detection, each coverslip prepared with cells was stained with multiple PPIs with one PPI per cycle. The cells were fixed, permeabilized, and then ready for the following staining steps: 1) block the sample with Duolink blocking solution; 2) incubate it with one pair of proteins, conjugated to one PLUS and one MINUS oligonucleotide at 4° C. overnight.\n(§3) For multicolor detection, after permeabilization, the cells underwent the following steps: 1) block the sample with Duolink blocking solution; 2) incubate it with two pair of proteins, conjugated to one pair of oligonucleotides at 4° C. overnight. […] After imaging, the samples were incubated with DNase at a 1:50 dilution rate for 4 hours at RT, followed by 3 times 30% formamide washes and 3 times 1×PBS washes.\n(§4) PPI detection: PPI signals were detected using a custom algorithm leveraging a traditional image processing pipeline. More specifically, each PPI image was preprocessed as followed: images were first transformed using a top-hat filter of size 3 pixels to reduce the noise around PPI signals, then Laplacian of Gaussian images was used to detect bright local maxima as PPI signals. In 3D images, double detection of PPI was filtered out at the same position in consecutive Z stacks. After detecting all the PPI locations in 3D, PPI was observed within a 2.5-pixel radius (0.045 um) by creating a PPI neighborhood graph of radius threshold 2.5 pixels and getting all connected components in the graph. Finally, the mean position of the unique connected components in the graph was extracted as identified unique PPI signals in 3D."}, "cyclin D1/CDK4": {"test_system": "cyclin D1/CDK4", "assay": "RapMPI (multiplexed PLA) PPI counts in HCC827 cells, 9 PPI panel", "type": "cell-based, human", "conditions": "12 hours, 9 PPI dataset", "procedure": "as §1, with “respectively.” for “respectively (FIG. 10A).”, “0.5% BSA, and 0.02% Sodium Azide in PBS.” for “5d.”, “HCC827” for “PC9”, “p-ERK” for “p-EGFR and β-tubulin”, “10” for “15”, “intensity levels were analyzed.” for “cell number was analyzed using ImageJ.”\nas §2, §3, §4"}, "sox2/oct4": {"test_system": "sox2/oct4", "assay": "RapMPI (multiplexed PLA) PPI counts in HCC827 cells, 9 PPI panel", "type": "cell-based, human", "conditions": "12 hours, 9 PPI dataset", "procedure": "as §1, with “respectively.” for “respectively (FIG. 10A).”, “0.5% BSA, and 0.02% Sodium Azide in PBS.” for “5d.”, “HCC827” for “PC9”, “p-ERK” for “p-EGFR and β-tubulin”, “10” for “15”, “intensity levels were analyzed.” for “cell number was analyzed using ImageJ.”\nas §2, §3, §4"}, "Bim/Tom20": {"test_system": "Bim/Tom20", "assay": "RapMPI (multiplexed PLA) PPI counts in HCC827 cells, 9 PPI panel", "type": "cell-based, human", "conditions": "12 hours, 9 PPI dataset", "procedure": "as §1, with “respectively.” for “respectively (FIG. 10A).”, “0.5% BSA, and 0.02% Sodium Azide in PBS.” for “5d.”, “HCC827” for “PC9”, “p-ERK” for “p-EGFR and β-tubulin”, “10” for “15”, “intensity levels were analyzed.” for “cell number was analyzed using ImageJ.”\nas §2, §3, §4"}},
  "note": "“Also recorded” adds a separate entry of the source.",
  "data": [
    {"smiles": "C=CC(=O)Nc1cc(Nc2nccc(-c3cn(C)c4ccccc34)n2)c(OC)cc1N(C)CCN(C)C", "note": "[Osimertinib]", "values": [
      {"measurement": "c-MYC degradation", "setting": "c-MYC", "value": "induce the degradation of c-MYC"},
      {"measurement": "p-EGFR localization (cell membrane, nucleus)", "setting": "p-EGFR (Tyr1086); 48 hours", "value": "mainly localized in the cell membrane and the nuclear p-EGFR expression was relatively low"},
      {"measurement": "p-EGFR (Tyr1086) expression level in multiplexed heatmap", "setting": "p-EGFR (Tyr1086); 48 hours vs control", "value": "remained minimally enhanced; also recorded: remained minimally altered"},
      {"measurement": "spatial continuity of p-EGFR distribution on the cell membrane", "setting": "p-EGFR (Tyr1086); 48 hours vs control", "value": "disrupted spatial continuity in the p-EGFR distributions on the cell membrane"},
      {"measurement": "p-EGFR (Y1173) level", "setting": "p-EGFR (Y1173)", "value": "decreased the p-EGFR (Y1173) level"},
      {"measurement": "correlation of WNT1 with p-AKT", "setting": "PC9 cells; 40 nM", "value": "high correlation with p-AKT in the presence of the drug"},
      {"measurement": "correlation between p-EGFR and non-p-β-catenin", "setting": "PC9 cells; 40 nM vs control", "value": "higher positive correlation between p-EGFR and non-p-β-catenin compared to the control"},
      {"measurement": "correlation of p-EGFR with p-AKT (single-cell mean intensity)", "setting": "PC9 cells; 40 nM, 48 hours", "value": "high correlation to p-AKT after drug treatment"},
      {"measurement": "correlation of WNT1 with p-EGFR", "setting": "PC9 cells; control and 40 nM", "value": "low correlation with p-EGFR in both conditions"},
      {"measurement": "NF-κB/p-p90RSK PPI", "setting": "NF-κB/p-p90RSK", "value": "effectively inhibited"},
      {"measurement": "cyclin D1/CDK4 PPI", "setting": "cyclin D1/CDK4", "value": "inhibitory effect"},
      {"measurement": "sox2/oct4 PPI", "setting": "sox2/oct4", "value": "downregulation"},
      {"measurement": "interactions between Tom20 and Bim", "setting": "Bim/Tom20", "value": "Reduced interactions"}
    ]}
  ]
}
